From ChEMBL document CHEMBL3046368, “Synthesis of benzothiazole derivatives and their biological evaluation as anticancer agents” (2012)

Key:
Type in all cases: functional
[1] = test system: HT-29; test: Cytotoxicity against Homo sapiens (human) HT-29 cells after 48 hr by SRB assay; conditions: HT-29, 48 h
[2] = test system: NCI/ADR-RES; test: Cytotoxicity against Homo sapiens (human) NCI/ADR-RES cells after 48 hr by SRB assay
[3] = test system: SNB-75; test: Cytotoxicity against Homo sapiens (human) SNB75 cells after 48 hr by SRB assay; conditions: SNB-75, 48 h
[4] = test system: EKVX; test: Cytotoxicity against Homo sapiens (human) EKVX cells after 48 hr by SRB assay
[5] = test system: RPMI-8226; test: Cytotoxicity against Homo sapiens (human) RPMI8226 cells after 48 hr by SRB assay; conditions: RPMI-8226, 48 h
[6] = test system: SK-OV-3; test: Cytotoxicity against Homo sapiens (human) SKOV3 cells after 48 hr by SRB assay; conditions: SK-OV-3, 48 h
[7] = test system: NCI-H23; test: Cytotoxicity against Homo sapiens (human) NCI-H23 cells after 48 hr by SRB assay; conditions: NCI-H23, 48 h
[8] = test system: MDA-MB-435; test: Cytotoxicity against Homo sapiens (human) MDA-MB-435 cells after 48 hr by SRB assay; conditions: MDA-MB-435, 48 h
[9] = test system: MOLT-4; test: Cytotoxicity against Homo sapiens (human) MOLT4 cells after 48 hr by SRB assay; conditions: MOLT-4, 48 h
[10] = test system: 786-0; test: Cytotoxicity against Homo sapiens (human) 786-0 cells after 48 hr by SRB assay; conditions: 786-0, 48 h
[11] = test system: MDA-MB-468; test: Cytotoxicity against Homo sapiens (human) MDA-MB-468 cells after 48 hr by SRB assay; conditions: MDA-MB-468, 48 h
[12] = test system: HOP-92; test: Cytotoxicity against Homo sapiens (human) HOP92 cells after 48 hr by SRB assay; conditions: HOP-92, 48 h
[13] = test system: TK-10; test: Cytotoxicity against Homo sapiens (human) TK10 cells after 48 hr by SRB assay; conditions: TK-10, 48 h
[14] = test system: HL-60(TB); test: Cytotoxicity against Homo sapiens (human) HL-60(TB) cells after 48 hr by SRB assay; conditions: HL-60, 48 h
[15] = Cytotoxicity against Homo sapiens (human) CNSC cells assessed as cell growth at 10^-5 M after 48 hr by SRB assay relative to control; conditions: read-out: Activity
[16] = test system: HOP-62; test: Cytotoxicity against Homo sapiens (human) HOP62 cells after 48 hr by SRB assay; conditions: HOP-62, 48 h
[17] = test system: SF-295; test: Cytotoxicity against Homo sapiens (human) SF295 cells after 48 hr by SRB assay; conditions: SF-295, 48 h
[18] = test system: OVCAR-8; test: Cytotoxicity against Homo sapiens (human) OVCAR8 cells after 48 hr by SRB assay; conditions: OVCAR-8, 48 h
[19] = test system: A549; test: Cytotoxicity against Homo sapiens (human) A549 cells after 48 hr by SRB assay; conditions: A549, 48 h
[20] = Cytotoxicity against Homo sapiens (human) ovarian cancer cells assessed as cell growth at 10^-5 M after 48 hr by SRB assay relative to control; conditions: Cancer cell lines, read-out: Activity
[21] = test system: A498; test: Cytotoxicity against Homo sapiens (human) A498 cells after 48 hr by SRB assay; conditions: A498, 48 h
[22] = test system: NCI-H460; test: Cytotoxicity against Homo sapiens (human) NCI-H460 cells after 48 hr by SRB assay; conditions: NCI-H460, 48 h
[23] = test system: HCT-15; test: Cytotoxicity against Homo sapiens (human) HCT15 cells after 48 hr by SRB assay; conditions: HCT-15, 48 h
[24] = test system: U-251; test: Cytotoxicity against Homo sapiens (human) U251 cells after 48 hr by SRB assay; conditions: U-251, 48 h
[25] = Cytotoxicity against Homo sapiens (human) melanoma cells assessed as cell growth at 10^-5 M after 48 hr by SRB assay relative to control; conditions: read-out: Activity
[26] = test system: CAKI-1; test: Cytotoxicity against Homo sapiens (human) Caki1 cells after 48 hr by SRB assay; conditions: CAKI-1, 48 h
[27] = test system: BT-549; test: Cytotoxicity against Homo sapiens (human) BT549 cells after 48 hr by SRB assay; conditions: BT-549, 48 h
[28] = test system: RXF 393; test: Cytotoxicity against Homo sapiens (human) RXF393 cells after 48 hr by SRB assay; conditions: RXF 393, 48 h
[29] = test system: KM12; test: Cytotoxicity against Homo sapiens (human) KM12 cells after 48 hr by SRB assay; conditions: KM12, 48 h
[30] = test system: Malme-3M; test: Cytotoxicity against Homo sapiens (human) MALME-3M cells after 48 hr by SRB assay
[31] = test system: OVCAR-4; test: Cytotoxicity against Homo sapiens (human) OVCAR4 cells after 48 hr by SRB assay; conditions: OVCAR-4, 48 h
[32] = test system: COLO 205; test: Cytotoxicity against Homo sapiens (human) COLO205 cells after 48 hr by SRB assay; conditions: COLO 205, 48 h
[33] = test system: OVCAR-5; test: Cytotoxicity against Homo sapiens (human) OVCAR5 cells after 48 hr by SRB assay; conditions: OVCAR-5, 48 h
[34] = test system: SK-MEL-28; test: Cytotoxicity against Homo sapiens (human) SK-MEL-28 cells after 48 hr by SRB assay; conditions: SK-MEL-28, 48 h
[35] = test system: NCI-H322M; test: Cytotoxicity against Homo sapiens (human) NCI-H322M cells after 48 hr by SRB assay
[36] = test system: NCI-H226; test: Cytotoxicity against Homo sapiens (human) NCI-H226 cells after 48 hr by SRB assay; conditions: NCI-H226, 48 h
[37] = test system: SN12C; test: Cytotoxicity against Homo sapiens (human) SN12C cells after 48 hr by SRB assay
[38] = test system: UACC-257; test: Cytotoxicity against Homo sapiens (human) UACC257 cells after 48 hr by SRB assay; conditions: UACC-257, 48 h
[39] = test system: SR; test: Cytotoxicity against Homo sapiens (human) SR cells after 48 hr by SRB assay

For `N#Cc1ccc(NC(=O)Nc2nc3ccc(OC(F)(F)F)cc3s2)cc1`, the GI50 [1] was 2090 nM, the GI50 [2] was 1550 nM and the GI50 [3] was 1820 nM. For the same compound, the GI50 [4] was 1350 nM, the GI50 [5] was 1000 nM and the GI50 [6] was 2630 nM. It also gave a GI50 [7] of 575 nM, a GI50 [8] of 1410 nM and a GI50 [9] of 1860 nM. The GI50 [10] was 2000 nM, the GI50 [11] was 457 nM and the GI50 [12] was 324 nM. For the same compound, the GI50 [13] was 1230 nM, the GI50 [14] was 2450 nM and the growth at 10 µM [15] was 2.6%. The GI50 [16] was 2.51 µM, the GI50 [17] was 1170 nM and the GI50 [18] was 2 µM. For the same compound, the GI50 [19] was 1200 nM, the growth at 10 µM [20] was 8.95% and the GI50 [21] was 468 nM. For the same compound, the GI50 [22] was 603 nM, the GI50 [23] was 1380 nM and the GI50 [24] was 1410 nM. The growth at 10 µM [25] was -9.77%, the GI50 [26] was 1580 nM and the GI50 [27] was 2.75 µM. It also gave a GI50 [28] of 1860 nM, a GI50 [29] of 1020 nM and a GI50 [30] of 851 nM. For the same compound, the GI50 [31] was 1620 nM, the GI50 [32] was 1700 nM and the GI50 [33] was 4.27 µM. The GI50 [34] was 2290 nM, the GI50 [35] was 2.4 µM and the GI50 [36] was 2000 nM. For the same compound, the GI50 [37] was 1580 nM, the GI50 [38] was 1350 nM and the GI50 [39] was 741 nM.
Work on `O=C(Nc1ccc(F)cc1)Nc1nc2ccc(OC(F)(F)F)cc2s1` yielded a GI50 [1] of 3890 nM, a GI50 [2] of 3390 nM and a GI50 [3] of 3470 nM. It also gave a GI50 [4] of 2630 nM, a GI50 [5] of 2510 nM and a GI50 [6] of 2570 nM. It also gave a GI50 [7] of 2880 nM, a GI50 [8] of 2950 nM and a GI50 [9] of 3090 nM. For the same compound, the GI50 [10] was 3470 nM, the GI50 [11] was 2340 nM and the GI50 [12] was 3890 nM. For the same compound, the GI50 [13] was 4070 nM, the GI50 [14] was 3020 nM and the growth at 10 µM [15] was 21.1%. It also gave a GI50 [16] of 3.8 µM, a GI50 [17] of 2570 nM and a GI50 [18] of 4.27 µM. The GI50 [19] was 3470 nM, the growth at 10 µM [20] was 12.9% and the GI50 [21] was 2950 nM. It also gave a GI50 [22] of 3020 nM, a GI50 [23] of 3020 nM and a GI50 [24] of 3980 nM. For the same compound, the growth at 10 µM [25] was 12%, the GI50 [26] was 2290 nM and the GI50 [27] was 3.8 µM. It also gave a GI50 [28] of 2690 nM, a GI50 [29] of 2690 nM and a GI50 [30] of 2950 nM. For the same compound, the GI50 [31] was 2950 nM, the GI50 [32] was 2090 nM and the GI50 [33] was 3.63 µM. For the same compound, the GI50 [34] was 3630 nM, the GI50 [35] was 4.47 µM and the GI50 [36] was 2820 nM. For the same compound, the GI50 [37] was 2570 nM, the GI50 [38] was 3550 nM and the GI50 [39] was 3720 nM.
